Tests used:
[1] = molecular target: human lysosomal α-glucosidase (Homo sapiens, UniProt P10253); assay: α-glucosidase inhibitory activity assay; assay type: biochemical; conditions: 1.43 mM compound; lysosomal α-glucosidase extracts; pH 4.0, 37 °C
α-glucosidase = conditions: previously reported; cited from earlier work

Row | α-glucosidase inhibition (%) [1] [%] | Molecule | IC50 (α-glucosidase) [µM]
1 | 46 | 1-(α-D-Glucopyranosyl)-4-cyano-phenyl-[1,2,3]-triazole [AGT3] | 
2 |  | O=c1cc(-c2ccccc2)oc2cc(O)cc(O)c12 [chrysin] | 77
3 | 57 | 1-(α-D-Glucopyranosyl)-4-nitro-phenyl-[1,2,3]-triazole [AGT5] | 
